Laboratory results taken from patent publication US20070014721A1, “Hydrazide conjugates as imaging agents” (priority 2005, published 2007).

How the values were obtained:
[1] = tested on: Rabbit plaque aorta or normal rabbit aorta; assay: Ex vivo blood vessel binding assay; set-up: species or system New Zealand white rabbits; settings: radiolabeled compound incubated with rabbit aorta (0.5 cm) in phosphate buffered saline for 2 hours at 37° C; bound compound as percentage of the incubated compound
Description: Normal aorta was obtained from New Zealand white rabbits. Aorta bearing atherosclerotic plaque was obtained from New Zealand white rabbits balloon stripped along the abdominal aorta and placed on a high fat diet (0.5% cholesterol) for 16-22 weeks. Vascular injury was produced with a 3-F Fogarty catheter along the abdominal aorta and left iliofemoral artery. This procedure generates an accelerated complex lesion development with a lipid rich core covered by a fibrous cap in rabbits. Rabbit plaque aorta or normal rabbit aorta (0.5 cm) was incubated with 10 nCi of ^14C labeled compound or 1.5 μCi of ^99m Tc labeled compound or 0.135 μCi of ^111In labeled compound or 0.135 μCi of ^68Ga labeled compound or 0.135 µCi of ^153Gd labeled compound diluted in phosphate buffered saline (450 μL) for 2 hours at 37° C. The supernatant from this sample was collected and analyzed by HPLC to determine compound stability in presence of blood vessels. The blood vessel tissue was then washed with phosphate buffered saline (3×10 mL). Phosphate buffered saline (10 ml) was added to the tissue and incubated at 37° C. for 1 hour. The tissue was then washed with phosphate buffered saline (3×10 mL). The washed tissue was oxidized in a tissue oxidizer for C-14 labeled compounds. The counts in the oxidized tissue were determined on a beta counter. Blood vessels incubated with ^99m Tc labeled compound or ^111In labeled compound or ^68Ga labeled compound or ^153Gd labeled compound were counted on a gamma counter. The amount of compound bound to the tissue was determined as a percentage of the incubated compound. This was calculated using the following formula: [formula]

[2] = tested on: aorta of apolipoprotein E (apoE) knockout mouse; assay: In vivo ApoE mouse aorta uptake study; settings: 60 min postinjection; for Aorta (% ID/g): ApoE mouse on high-fat diet 37-41 weeks, tail vein bolus; for Aorta/Blood Ratio: ApoE mouse, calculated from the % ID/g data
Description: Mice were fed a high-fat diet to accelerate plaque formation and compounds were tested in the mice between 37-41 weeks on diet. Test compounds were radiolabeled (^14C, ^99mTc, or ^111In as described above) and administered at 0.02-4.0 mCi/kg to anesthetized mice in a single, bolus injection via the tail vein. Blood samples were collected via the tail between 0-30 minutes postinjection for pharmacokinetic analysis and mice were euthanized by CO2 at 60 minutes for tissue harvesting. The aorta were flushed with saline through the left ventricle exiting via the femoral vein. The aorta were then removed from the heart to the renal bifurcation and additional tissue samples collected (blood, muscle, liver, kidney, heart, lung, spleen and innominate artery). All samples were weighed and assayed for radioactivity. Tissue uptake is expressed as percent of injected dose per gram of tissue (% ID/g). The aorta to blood ratios were calculated from the % ID/g data.

Molecule	Aorta (% ID/g) [2] [% ID/g]	Aorta/Blood Ratio [2]	Tissue Binding % [1] [%]
CC(C)CC(NC(=O)OC(C)(C)C)C(=O)NNC(=O)NN (stereo not drawn) [Example 124, Boc-d-Leu-NHNH—CO—NHNH2]	–	–	5.85
CC(C)C[C@@H](NC(=O)OC(C)(C)C)C(=O)NCC(=O)NCCCCN [Example 140, Boc-d-Leu-Gly-NH-Butyl-NH2]	1.3	0.8	0.52
Boc-Aib-Ahxh-H [Example 130]	–	–	3.33
Boc-L-d-Leu-Ahxh-H [Example 150]	2.1	1.2	5.36
Boc-Leu-PABA-CO-d-Leu-Ahxh-H [Example 127]	–	–	24.22
Boc-cLeu-Ahxh-H [Example 133]	5.7	2.9	9.10
Boc-d-Ala-Ahxh-H [Example 134]	–	–	5.72
Boc-d-Aphe(ε-Leu(Boc))-Ahxh-H [Example 151]	9.0	2.9	26.92
Boc-d-Arg(Pmc)-Ahxh-H [Example 131]	–	–	5.19
Boc-d-Glu(tBu)-Ahxh-H [Example 132]	–	–	2.47
Boc-d-Leu-Ambh-H [Example 138]	8.6	6.7	21.11
Boc-d-Leu-Apah-H [Example 121]	9.3	4.6	30.55
Boc-d-Leu-N(Me)-NH-Ahx-H [Example 141]	–	–	0.75
Boc-d-Leu-N(Me)-NH-Ahx-NH2 [Example 126]	1.3	0.6	2.97
Boc-d-Leu-NHNH2 [Example 122]	4.0	3.0	13.99
Boc-d-Leu-NHNH—CO-(PEG)4-NH2 [Example 123]	–	–	9.74
Boc-d-Lys(e-Leu(Boc))-Ahxh-H [Example 136]	–	–	9.15
Boc-d-Phe-Ahxh-H [Example 129]	8.1	3.3	14.42
Boc-βLeu-Ahxh-H [Example 135]	–	–	2.30
H-Ahxh-d-Leu-Boc [Example 137]	–	–	1.43
H-d-Cha-Inph-DTPA [Example 197]	–	–	6.97
H-d-Cys(Bzl)-Ambh-DTPA [Example 179]	–	–	9.67
H-d-Leu-Apah-DOTA [Example 160]	–	–	9.59
H-d-Phe-Ambh-DTPA [Example 161]	8.7	4.9	7.75
H-d-Phe-Inph-DTPA [Example 199]	–	–	3.36
H-d-Pro-Ahxh-DTPA [Example 165]	–	–	5.51
H-d-Val-Ambh-DTPA [Example 198]	–	–	5.26
N,N-Me2-d-Leu-Ahxh-H [Example 125]	–	–	4.63

The next lines start with results.

Aorta (% ID/g) [2] [% ID/g]	Aorta/Blood Ratio [2]	Molecule	Tissue Binding % [1] [%]
3.8	2.1	H-Aic-Ambh-DTPA [Example 207]	5.26
6.5	0.9	H-Pro-Ahxh-DTPA [Example 163]	2.61
2.8	2.2	H-cLeu-Ahxh-DTPA [Example 188]	3.91
4.6	1.9	H-cLeu-Ambh-DTPA [Example 195]	9.52
12.6	10.8	H-d-2-Nal-Ambh-DTPA [Example 212]	18.78
6.2	3.0	H-d-Aphe-Ahxh-DTPA [Example 193]	8.69
7.9	5.9	H-d-Bip-Ahxh-DTPA [Example 175]	32.09
7.1	4.7	H-d-Bip-NHNH-DTPA [Example 162]	6.39
6.8	3.3	H-d-Cha-Ahxh-DTPA [Example 194]	16.33
9.8	7.8	H-d-Cha-Ambh-DTPA [Example 196]	8.25
7.0	5.4	H-d-Cha-Apah-DTPA [Example 170]	7.55
8.0	4.9	H-d-Cys(Bzl)-Ahxh-DTPA [Example 167]	9.74
9.5	5.8	H-d-Cys(Bzl)-Apah-DTPA [Example 173]	13.82
9.8	7.3	H-d-Cys(Bzl)-Apph-DTPA [Example 181]	13.91
11.2	8.1	H-d-H2phe-Ambh-DTPA [Example 185]	10.64
3.7	1.2	H-d-His-Ahxh-DTPA [Example 172]	4.22
7.5	5.8	H-d-Hphe-Ahxh-DTPA [Example 168]	9.17
9.9	3.9	H-d-Hphe-Ambh-Ahx-DTPA [Example 211]	18.09
8.3	13.2	H-d-Hphe-Apph-DTPA [Example 180]	18.24

Aorta (% ID/g) [2] [% ID/g]	Aorta/Blood Ratio [2]	Molecule	Tissue Binding % [1] [%]
8.4	9.8	H-d-Hphe-Pheh-AEEA-DTPA [Example 213]	26.68
10.5	11.2	H-d-Hphe-mAmbh-DTPA [Example 210]	13.13
3.3	1.0	H-d-Leu-NHNH-DTPA [Example 189]	1.08
4.3	2.1	H-d-Leu-XInph-DTPA [Example 201]	2.94
5.1	2.2	H-d-Nle-Ahxh-DTPA [Example 200]	2.72
7.8	6.3	H-d-Phe(4-NHBz)-Ambh-DTPA [Example 205]	8.83
7.9	8.7	H-d-Phe(CF3)-Apah-DTPA [Example 177]	13.53
6.7	5.3	H-d-Phe(F5)-Ambh-DTPA [Example 204]	16.11
11.0	4.5	H-d-Phe-Apph-Ahx-DTPA [Example 182]	12.02
10.8	9.6	H-d-Phe-Bbh-DTPA [Example 209]	20.9
2.3	1.9	H-d-Phe-NHNH-DTPA [Example 192]	1.78
4.3	4.0	H-d-Phe-XInph-DTPA [Example 202]	5.44
4.0	3.3	H-d-Ser(Bzl)-Ahxh-DTPA [Example 166]	5.91
6.1	5.4	H-d-Stya-Ambh-DTPA [Example 187]	13.66
8.3	4.2	H-d-Tic-Apah-DTPA [Example 178]	6.00
12.5	11.3	H-d-Trp-Apph-ETPA [Example 184]	13.08
5.8	3.2	H-d-Tyr(Bzl)-Ambh-DTPA [Example 206]	19.62
6.1	5.1	H-d-Tyr(Et)-Apah-DTPA [Example 169]	13.53
